From ChEMBL document CHEMBL3507680, “University of Dundee, Gates Library screen for HepG2 cell viability”

Test: Human HepG2 cell viability assay in 384 well format
Assay type: toxicity, cell-based
Parameters: dose 125 nL, time 70.5 hour; concentration not given beside the values
Details: HepG2 cells, read-out: Inhibition

SMILES	cytotoxicity at 70.5 h
CCc1cnc(NCc2nc(CSC)no2)nc1	10.1%
CCCc1cc(C(=O)N(Cc2cccnc2)C[C@@H]2CCC(=O)N2)no1	-6.41%
Cc1cnc(C)c(N2CCCC(C/C=C/c3ccccc3)(C(=O)O)C2)n1 (stereo not drawn)	-7.68%
CN1CCN(Cc2ccccc2Oc2cncc(C(N)=O)n2)CC1	-3.62%
Nc1cc(C(=O)N2CCCC(C(=O)CCc3ccccc3)C2)ccn1 (stereo not drawn)	-3.17%
CC(C)c1ncc(CN2C[C@@H](CN3CCC(O)CC3)[C@@H](CO)C2)cn1	37.8%
CN1CCN(c2ccc(C(=O)N3CCCC(c4ncc[nH]4)C3)cc2)CC1 (stereo not drawn)	-9.77%
CC1(C)CNC(=O)c2nc(-c3nnn[nH]3)[nH]c2C1	-3.01%
O=C(CC1COCCN1)N1CCC2(CCc3ccccc32)CC1 (stereo not drawn)	8.47%
CCC[C@@H]1CN(S(=O)(=O)c2ccc3[nH]c(=O)[nH]c3c2)C[C@H]1NC(C)=O	-1.53%
Cc1cc(CN(C)C(=O)c2cc(COc3ccccc3)[nH]n2)n[nH]1	-3.12%
Cc1cccc(C)c1C(=O)N1C[C@@H](CN2CCOCC2)[C@@H](CO)C1	-7.08%
CCc1ccccc1OC1CN(C(=O)c2ccnc(OC)c2)C1	11.1%
Cc1cc(C[C@@H]2COC[C@@H]2NC(=O)CN2CCCCCC2)on1	-10.1%
CCOCc1nccc(-c2ccc(OCC)c(C(=O)O)c2)n1	2.25%
CCCn1cnnc1CNC(=O)CC1C(=O)NCCN1CC(C)(C)C (stereo not drawn)	-12.5%
COc1ccc(Cn2cc(C(=O)N(C)Cc3ccn[nH]3)nn2)cc1	-18.5%
Cc1cc(-c2cccc3c2CCNC3)cnc1-n1cnnc1	-5.08%
CCc1cc(N2CCC(N[C@@H]3CS(=O)(=O)C[C@H]3O)CC2)nc(N(C)C)n1	0.303%
CCC[C@H]1CN(C(=O)CCn2ccccc2=O)C[C@@H]1NS(C)(=O)=O	-16.2%
Fc1cc(Oc2ccc(C(F)(F)F)cn2)cc(F)c1CN1CCCC1	-4.12%
CC(C)C1CN(c2cccc(C#N)n2)CCCN1CC1CC1 (stereo not drawn)	-11.5%
Fc1ccccc1-c1noc2c1CN(CCN1CCOCC1)CC2	7.36%
CN(C)CCN(C)C1CCCN(C(=O)c2ccc(Cn3ccnc3)o2)C1 (stereo not drawn)	-9.94%
Cc1cccc(C(C(=O)N(C)Cc2cc(C)no2)N(C)C)c1 (stereo not drawn)	-7.53%
COCCCC1(CO)CCCN(CCOC)C1 (stereo not drawn)	-4.83%

SMILES	cytotoxicity at 70.5 h
Cc1cccc(SC2CCN(C(=O)CCNS(C)(=O)=O)CC2)c1	-13.1%
Cc1cnc(NCc2cnn(C)c2)nc1-c1cnn(C)c1	13.5%
C[C@@H]1CN(S(=O)(=O)c2ccc(F)cc2F)C[C@]1(C)O	-1.56%
NC(=O)COc1ccc(CN2CC[C@@]3(O)CCCC[C@H]3C2)cc1Cl	-2.71%
c1cc(C2CCN(Cc3ccc4c(c3)OCO4)CC2)ccn1	-2.31%
Cc1nnc(N2CCCC(C(=O)c3cccc(Cl)c3)C2)o1 (stereo not drawn)	-3.19%
O=C1OCCN1CC(=O)N1C[C@H]2CC[C@@H]1CN(C(=O)c1cccnc1)C2	-2.17%
CCn1ccnc1C1CCCN(c2nccc3ccccc23)C1 (stereo not drawn)	-8.19%
Cc1nc(C2CCCNC2)cc(N(Cc2nccn2C)C2CC2)n1 (stereo not drawn)	7.52%
CCn1ccnc1CN(C)C(C(=O)O)c1ccc(C(C)(C)C#N)cc1 (stereo not drawn)	-4.97%
CCN(CC)c1ncccc1CNC(=O)c1cc2nc(C)cc(C)n2n1	-0.33%
Cc1nccn1CCC1CCCCN1Cc1ccc2c(c1)OCCO2 (stereo not drawn)	14.5%
O=C(CCc1cc2n(n1)CCCNC2)N1CCN(C2CCCC2)C(=O)C1	-7.76%
Cc1ccc(CN2CCNC(=O)C2CC(=O)NCc2n[nH]c(C)n2)cc1 (stereo not drawn)	-3.13%
CCCN(CCC)C(=O)c1cc(CN2CCC(O)CC2)on1	-6.98%
Cc1cc(N[C@H]2CCCN(Cc3ccccc3)C2)n2nc(C)cc2n1	1.66%
Cc1cc(C)c(C(=O)N[C@H](C(N)=O)c2ccccc2)c(=O)[nH]1	12.8%
Cc1noc(C)c1CN1CCCCC1CCc1ccc(O)cc1 (stereo not drawn)	-1.36%
CSc1nc(N)cc(N2C[C@@H]3CC[C@H](C2)N(CC2CC2)C3=O)n1	3.27%
Cc1ccc(CN2CC[C@@H](NC(=O)c3cccnc3)[C@H](O)C2)o1	-13.3%
COc1nccnc1N1CCN(Cc2ccc(F)cc2)C(=O)C1	24.6%
Cc1cc(-c2nn(C)c(Cl)c2CN2CC[C@@](O)(C3CCC3)[C@H](C)C2)no1	0.567%
CC(C)NC(=O)N1CCC(c2nccn2C(C)C)CC1	-3.22%
O=C(NC1CCCCC1)N1CCC(N2Cc3ncccc3C2=O)CC1	-13.7%
Cc1nccc(N2CC[C@@H]3[C@@H](CCC(=O)N3CCc3ccccc3)C2)n1	-6.49%
Cc1ocnc1C(=O)N1CCCC1c1ccc(C(=O)N2CCSCC2)s1 (stereo not drawn)	-7.81%

SMILES	cytotoxicity at 70.5 h
COc1ccc(OCc2cc(C(=O)N3CCSCC3)n[nH]2)c(Cl)c1	-5.04%
COc1cc(N2C[C@@H](C)[C@](O)(C3CC3)C2)ncn1	5.18%
COC(=O)c1cc(NC(=O)NCC2CCS(=O)(=O)C2)ccc1Cl (stereo not drawn)	-0.58%
CCc1ccc(CN(Cc2ccco2)C(C)C(C)C)nc1 (stereo not drawn)	1.59%
COC(=O)[C@H]1C[C@@H](O)CCN1S(=O)(=O)c1cc(Cl)ccc1OC	-11.2%
COc1cc(F)c(C(=O)NCc2ccon2)c(F)c1	-3.42%
O=C(c1cn(-c2ccccc2)nn1)N1CCOCC(O)C1 (stereo not drawn)	15.7%
Cc1nc(-c2ccccc2)c(C(=O)N2CCC3(CC(=O)NC3=O)C2)s1 (stereo not drawn)	-6.69%
Cc1ccsc1[C@@H]1CCN(C(=O)CCC(=O)c2ccccc2)C[C@H]1O	-9.94%
CN(CCc1cnn(C)c1)C(=O)C(c1ccccc1F)N(C)C (stereo not drawn)	0.281%
CN(C)[C@@H]1C[C@@H](CO)N(C(=O)Nc2ccc(SC(F)(F)F)cc2)C1	4.27%
CS(=O)(=O)NCC(=O)N[C@H]1CN(c2cnccn2)C[C@@H]1C1CC1	9.56%
Cc1cc(C(=O)NCc2cccnc2N2CCc3ccccc3C2)[nH]n1	-3.47%
CCc1ncc2c(n1)CN(c1nc(C)ccc1C(=O)O)C2	-10.8%
O=C(c1ccc(=O)[nH]c1)N1C[C@@H]2CC[C@H](C1)N(Cc1ccccc1)C2	-8.28%
CC(C)[C@H](C)NC1CCN(c2ccc(-c3cscn3)cc2)CC1	-14.3%
Cc1nc(N(C)CCCc2nccn2C)c2c(C)nn(C)c2n1	-6.47%
O=C(NCc1cccnc1)C1CN(c2cnc3ccccc3n2)CCN1 (stereo not drawn)	19.1%
CCc1ncc2c(n1)CN(C(=O)CNC(=O)c1ccccc1)C2	25.5%
CCOCC1CCN(C(=O)C(c2cccc(F)c2)N(C)C)CC1 (stereo not drawn)	27.9%
Cc1c(C(C)N)cnn1-c1ccccn1 (stereo not drawn)	-8.01%
Nc1ccc(-c2ccc(F)cc2Cl)cn1	-8.38%
COCCN(Cc1ccsc1)C(=O)c1c(C)cc(C)[nH]c1=O	-1.09%
COc1ccc(-n2c(SC)nc(O)c(Cc3ccccc3)c2=O)cc1	-2.29%
CCNc1ncc(C(=O)NC(CC)c2ccnn2C)cn1 (stereo not drawn)	-5.36%
COCc1noc(CN2C[C@H](C3CC3)[C@@H](N(C)C)C2)n1	-8.41%
